Target: T1, GluK1 (Rattus norvegicus, UniProt P22756, DEL560-681)
T1 sequence (P22756 446-559): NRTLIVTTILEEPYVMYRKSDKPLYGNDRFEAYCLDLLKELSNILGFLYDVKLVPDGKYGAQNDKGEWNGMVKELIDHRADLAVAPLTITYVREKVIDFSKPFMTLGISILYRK
T1 sequence (P22756 682-821): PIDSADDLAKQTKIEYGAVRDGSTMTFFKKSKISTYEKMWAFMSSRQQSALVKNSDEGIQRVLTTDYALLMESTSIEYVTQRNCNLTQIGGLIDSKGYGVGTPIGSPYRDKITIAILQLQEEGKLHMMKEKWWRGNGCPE
Assay: crystal structure
Format: binding

Row | Structure (SMILES) | Kd [nM]
1 | Cc1cn(C[C@H](N)C(=O)O)c(=O)n(Cc2c(C(=O)O)sc(Br)c2Br)c1=O [UBP315, (S)-1-(2-Amino-2-carboxyethyl)-3-(2-carboxy-4,5-dibromothiophene-3-yl-methyl)-5-methylpyrimidine-2,4-dione] | 33
2 | N[C@@H](Cn1cc(Br)c(=O)n(Cc2ccsc2C(=O)O)c1=O)C(=O)O [UBP318, (S)-1-(2-amino-2-carboxyethyl)-5-bromo-3-(2-carboxythiophene-3-yl-methyl)pyrimidine-2,4-dione] | 186
